Source: patent publication US12011475B2, “Polypeptide, polypeptide fragment, derivative thereof, and applications thereof” (CHENGDU HUITAI BIOMEDICINE CO., LTD., priority 2017, dated 2024)
Square brackets hold non-standard residues; d marks the D form. Primed or numbered codes have the meaning given here. Ends that are not written are not given here. PEG2′ = not defined here

What was measured:
[1] = tested on: TGF-β/Smad signaling pathway; test: Western blot of Smad protein in lung tissue homogenate (Example 8); type: in vivo, rat; conditions: vs bleomycin group, 2.5 mg/kg peptide intratracheal; for levels of p-Smad2 and p-Smad3 proteins (grayscale value): p<0.05, FIG. 9; for intensities of the expression bands of p-Smad2 and p-Smad3 in lung tissue: GAPDH internal reference, FIG. 8
Description: (§1) The rats were weighed before administration, intramuscularly injected with 65 mg/kg Zoletil anesthetic solution. After the rats entered the stage III anesthesia, the experimental rats were fixated in the lateral decubitus. Gavage needle size 12 was inserted into rat trachea through oral cavity along the glottis to instill with drug. The experimental animals were fed normally from the 1st day to the 7th day after intratracheal administration, and were weighed every day with feed and water ad libitum.
(§2) The rats in blank control group were received no treatment after anesthesia; the rats in model group (bleomycin) were intratracheally instilled with bleomycin (3 mg/kg); the rats in PBS control group were intratracheally instilled with an equal volume of sterile PBS buffer (0.01 M, pH=9.5); the rats in polypeptide control group were intratracheally instilled with 2.5 mg/kg of the polypeptide N2 (the solvent was 0.01 M, pH=9.5 PBS buffer); the rats in N2 treatment group were intratracheally instilled with 2.5 mg/kg of the polypeptide N2 and 3 mg/kg of bleomycin simultaneously, the rats in N3 treatment group were intratracheally instilled with 2.5 mg/kg of the polypeptide N3 and 3 mg/kg of bleomycin simultaneously.
The rat lung tissue of Example 2 was taken, and the tissue was homogenized using RIPA lysate (100 mg of lung tissue corresponding to 1 mL of lysate), centrifuged and the supernatant was taken, and then the protein concentration was determined by BCA method. Equal amounts of protein samples were taken and Western blot experiment was performed using anti-GAPDH, anti-p-Smad2 and anti-p-Smad3 antibodies (the result is shown in FIG. 8).
The grayscale value of each band was detected and analyzed using Image pro plus 6.0 image analysis software (the result is shown in FIG. 9). […] The detection of grayscale value supported the above-mentioned description.

[2] = tested on: Fibronectin, Collagen I and Collagen III; test: Western blot of extracellular matrix protein in lung tissue homogenate (Example 6); type: in vivo, rat; conditions: vs bleomycin group, 2.5 mg/kg peptide intratracheal; for levels of Fibronectin, Collagen I and Collagen III proteins (grayscale value): p<0.05, FIG. 6; for intensities of the expression bands of Fibronectin, Collagen I and Collagen III in lung tissue: GAPDH internal reference, FIG. 5
Description: as §1, §2
The rat lung tissue of Example 2 was taken, and homogenized using RIPA lysate (100 mg of lung tissue corresponding to 1 mL of lysate), centrifuged and the supernatant was taken, and then the protein concentration was determined by BCA method. Equal amounts of protein samples were taken and Western blot experiment was performed using anti-GAPDH, anti-Fibronectin, anti-Collagen I and anti-Collagen III antibodies (the result is shown in FIG. 5).
The grayscale value of each band was detected and analyzed using Image pro plus 6.0 image analysis software (the result is shown in FIG. 6). […] The detection of grayscale value supported the above-mentioned description.

[3] = tested on: rat with pulmonary fibrosis induced by bleomycin; test: Hydroxyproline content in lung tissue homogenate, alkali hydrolysis kit (Example 7); type: in vivo; conditions: vs bleomycin group; 2.5 mg/kg peptide intratracheal; p<0.05; FIG. 7
Description: (§3) The rats were weighed before administration, intramuscularly injected with 65 mg/kg Zoletil anesthetic solution. After the rats entered the stage III anesthesia, the experimental rats were fixated in the lateral decubitus. Gavage needle size 12 was inserted into rat trachea through oral cavity along the glottis to instill with drug. The experimental animals were fed normally from the 1st day to the 7th day after intratracheal administration, and were weighed every day with feed and water ad libitum. […]
The rats of Example 2 were taken, and the hydroxyproline content in lung tissue homogenate was detected using Boster Hydroxyproline Alkali Hydrolysis Assay Kit (Cat. No. A030) (the result is shown in FIG. 7).

[4] = tested on: rat with pulmonary fibrosis induced by bleomycin; test: Lung coefficient, bleomycin rat model (Examples 2-3); type: in vivo; conditions: vs bleomycin group; 2.5 mg/kg peptide + 3 mg/kg bleomycin intratracheal, simultaneously; p<0.05; FIG. 1
Description: as §3
The rats in Example 2 were weighed and sacrificed by anesthesia overdose. […] After the wet weight of the whole lung was weighted by the electronic balance, the lung coefficient was calculated according to the formula, lung coefficient=lung mass (mg)/body weight (g) (the result is shown in FIG. 1).

[5] = tested on: rat with pulmonary fibrosis induced by bleomycin; test: Inflammatory cells in bronchoalveolar lavage fluid, Wright-Giemsa staining (Example 5); type: in vivo; conditions: vs bleomycin group; 2.5 mg/kg peptide + 3 mg/kg bleomycin intratracheal; p<0.05; FIG. 4
Description: as §3
Bronchoalveolar lavage fluid was collected, and […] by centrifugation. […] The counting method was: the number of macrophages, lymphocytes, and neutrophils was calculated according to the total number of inflammatory cells based on the respective proportion of macrophages, lymphocytes, and neutrophils in 100 intact cells (the result is shown in FIG. 4).

[6] = tested on: rat with pulmonary fibrosis induced by bleomycin; test: HE staining and alveolitis score of rat lung tissue (Example 4); type: in vivo; conditions: 2.5 mg/kg peptide + 3 mg/kg bleomycin intratracheal; for inflammatory pathology score (degree of alveolitis, grade 0 to 3): vs BLM group, p<0.01, FIG. 3; for pathological changes in lung tissue (HE staining): vs model group, FIG. 2
Description: as §1, §2
The lung tissue of the rats of Example 2 was taken, fixed with 4% paraformaldehyde and embedded in paraffin. The wax block embedded the lung tissue was sectioned along the largest cross section. Pathological changes in lung tissue were observed using hematoxylin-eosin (HE) staining. Pathological changes in lung tissue were observed under a light microscope (low magnification) at a magnification of 100 times (the result is shown in FIG. 2).
According to the method provided by Szapie, et al., the degree of alveolitis was graded according to the range of lesions and could be divided into 0 to 3 grades, corresponding to 0 to 3 points. The evaluation indexes for the degree of alveolitis are as follows: grade 0, no alveolitis; grade 1, mild alveolitis, manifested as a slight increase in alveolar septum, infiltration of monocytes, near the pleura or localized, with a lesion range of less than 20% without alveolar structural damage; grade 2, moderate alveolitis, the lesion ranges from 20% to 50%, relatively severe near the pleura; grade 3, severe alveolitis, diffusely distributed, the lesion range is more than 50%, with pulmonary parenchymal lesion occasionally.

[7] = tested on: TGF-β signaling pathway; test: ctgf, Collagen I and Collagen III in lung tissue by RT-qPCR (Example 11); type: in vivo, rat; conditions: vs model group; 6 mg/kg peptide + 3 mg/kg bleomycin intratracheal; 18S RNA reference; p<0.05; FIG. 11
Description: (§4) The rats were weighed before administration, intramuscular injection of Zoletil anesthetic solution, the dose was 65 mg/kg. After the rats entered the stage III anesthesia, the experimental rats were bond in the incline lateral decubitus. A size 12 gavage needle was inserted into rat trachea through oral cavity along the glottis to infuse the drug. The experimental animals were fed normally from the 1st day to the 14th day after intratracheal administration, and were weighed regularly every day without restriction of feed or drinking water. […]
The rat lung tissue in the model group, the control group and the N4 treatment group of Example 9 was taken. […] After obtaining cDNA using reverse transcription, fluorescence quantitative PCR (qPCR) kit (Applied Biosystems, Cat. No. 4319413E) was used to detect the expression levels of connective tissue growth factor ctgf (forward primer: 5′-[…]-3′, reverse primer: 5′-[…]-3′) downstream of the TGF-β pathway, Collagen I (forward primer: 5′-TGCCGATGTCGCTATCCA-3′, reverse primer: 5′-[…]-3′) and Collagen III (forward primer: 5′-[…]-3′, reverse primer: 5′-[…]-3′). […]

[8] = tested on: active TGF-β; test: Active TGF-β in lung tissue by ELISA (Examples 9-10); type: in vivo, rat; conditions: vs model group; 6 mg/kg peptide + 3 mg/kg bleomycin intratracheal; p<0.05; FIG. 10
Description: as §4
The rat lung tissue in the model group, the control group and the N4 treatment group of Example 9 was taken, and homogenized using RIPA lysate (100 mg of lung tissue corresponding to 1 mL of lysate), centrifuged and the supernatant was taken, and then the protein concentration was determined by BCA method. Equal amounts of protein samples were taken and the active TGF-β content was measured by enzyme-linked immunosorbent assay ELISA (Promega, Cat. No. G7591) (the result is shown in FIG. 10), and one-way ANOVA was used for biostatistical analysis.

[9] = tested on: rat with pulmonary fibrosis induced by bleomycin; test: Hydroxyproline content in lung tissue homogenate, acid hydrolysis (Example 12); type: in vivo; conditions: vs model group; 6 mg/kg peptide + 3 mg/kg bleomycin intratracheal; p<0.05; FIG. 12
Description: The rats were weighed before administration, intramuscular injection of Zoletil anesthetic solution, the dose was 65 mg/kg. After the rats entered the stage III anesthesia, the experimental rats were bond in the incline lateral decubitus. A size 12 gavage needle was inserted into rat trachea through oral cavity along the glottis to infuse the drug. The experimental animals were fed normally from the 1st day to the 14th day after intratracheal administration, and were weighed regularly every day without restriction of feed or drinking water.
The rats in model group were intratracheally instilled with bleomycin (3 mg/kg); the rats in control group were intratracheally instilled with an equal volume of saline; the rats in treatment groups were intratracheally instilled with bleomycin (3 mg/kg) and corresponding therapeutic drug (6 mg/kg) simultaneously.
The lung tissue in the model group, the control group and the N4 treatment group of Example 9 was taken, and the hydroxyproline content in the lung tissue homogenate was detected using BioVision Hydroxyproline Acid Hydrolysis Assay Kit (Cat. No. K555-100) (the result is shown in FIG. 12), and one-way ANOVA was used for biostatistical analysis.

(PEG2)TyrArgValArgPheLeuAlaLysGluAsnValThrGlnAspAlaGluAsp ([PEG2′]YRVRFLAKENVTQDAED; listed as Homo sapiens) [N3]
levels of p-Smad2 and p-Smad3 proteins (grayscale value) [1]: decreased significantly
intensities of the expression bands of p-Smad2 and p-Smad3 in lung tissue [1]: almost returned to the level of the control group
levels of Fibronectin, Collagen I and Collagen III proteins (grayscale value) [2]: decreased significantly
intensities of the expression bands of Fibronectin, Collagen I and Collagen III in lung tissue [2]: almost returned to the level of the control group
hydroxyproline content in lung tissue [3]: decreased significantly
lung coefficients of the left lung, the right lung and the whole lung [4]: decreased significantly
number of macrophages, heteromorphic nuclear cells and lymphocytes in bronchoalveolar lavage fluid [5]: decreased significantly
inflammatory pathology score (degree of alveolitis, grade 0 to 3) [6]: significant alleviation
pathological changes in lung tissue (HE staining) [6]: a small amount of inflammatory cell infiltration in the interstitial

RFLAKENVTQD [N4]
gene expression levels of ctgf, collagen I and collagen III in lung tissue [7]: decreased significantly
content of active TGF-β in the lung tissue [8]: decreased significantly
hydroxyproline content in lung tissue [9]: decreased significantly

YRVRFLAKENVTQDAED [N2]
levels of p-Smad2 and p-Smad3 proteins (grayscale value) [1]: decreased significantly
intensities of the expression bands of p-Smad2 and p-Smad3 in lung tissue [1]: almost returned to the level of the control group
levels of Fibronectin, Collagen I and Collagen III proteins (grayscale value) [2]: decreased significantly
intensities of the expression bands of Fibronectin, Collagen I and Collagen III in lung tissue [2]: almost returned to the level of the control group
hydroxyproline content in lung tissue [3]: decreased significantly
lung coefficients of the left lung, the right lung and the whole lung [4]: decreased significantly
number of macrophages, heteromorphic nuclear cells and lymphocytes in bronchoalveolar lavage fluid [5]: decreased significantly
inflammatory pathology score (degree of alveolitis, grade 0 to 3) [6]: significant alleviation
pathological changes in lung tissue (HE staining) [6]: a small amount of inflammatory cell infiltration in the interstitial
